Laboratory results reported in ChEMBL document CHEMBL1201862, “PubChem BioAssay data set” (2004).
Activity calls are given as the source filed them.

How the values were obtained:
[1] = target: E3 ubiquitin-protein ligase UHRF1 (Homo sapiens, UniProt Q96T88); test: Counterscreen for inhibitors of 5-meCpG-binding domain protein 2 (MBD2): TRFRET-based biochemical high throughput dose response assay to identify inhibitors of binding of ubiquitin-like with PHD and ring finger domains 1 (UHRF1) to methylated oligonucleotide.
E3 ubiquitin-protein ligase UHRF1, sequence (Q96T88 whole entry, the tested form may be a part): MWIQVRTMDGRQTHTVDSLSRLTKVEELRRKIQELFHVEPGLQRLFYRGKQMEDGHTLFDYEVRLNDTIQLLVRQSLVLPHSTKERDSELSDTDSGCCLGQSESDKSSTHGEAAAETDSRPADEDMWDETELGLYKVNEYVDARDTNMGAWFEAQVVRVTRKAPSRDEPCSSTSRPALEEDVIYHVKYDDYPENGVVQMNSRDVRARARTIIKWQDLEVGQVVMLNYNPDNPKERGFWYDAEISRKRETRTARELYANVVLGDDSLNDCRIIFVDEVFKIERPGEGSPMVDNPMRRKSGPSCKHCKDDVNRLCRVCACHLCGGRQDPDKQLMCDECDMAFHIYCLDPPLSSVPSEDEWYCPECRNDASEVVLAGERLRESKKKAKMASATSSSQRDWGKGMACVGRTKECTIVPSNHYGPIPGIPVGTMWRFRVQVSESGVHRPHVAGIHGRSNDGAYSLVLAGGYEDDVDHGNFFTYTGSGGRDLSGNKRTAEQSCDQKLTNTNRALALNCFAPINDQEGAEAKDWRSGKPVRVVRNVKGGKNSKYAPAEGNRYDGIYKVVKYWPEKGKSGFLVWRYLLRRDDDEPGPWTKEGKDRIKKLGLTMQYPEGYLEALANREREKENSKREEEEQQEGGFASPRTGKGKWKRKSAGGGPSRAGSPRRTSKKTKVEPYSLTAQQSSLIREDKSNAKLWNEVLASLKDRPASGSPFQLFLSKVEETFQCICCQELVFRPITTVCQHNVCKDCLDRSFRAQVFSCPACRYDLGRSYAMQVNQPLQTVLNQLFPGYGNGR

[2] = target: SWI/SNF-related matrix-associated actin-dependent regulator of chromatin subfamily A member 2 (Homo sapiens, UniProt P51531); test: Luminescence-based cell-based high throughput dose response assay to identify activators of the function of SWI/SNF related, matrix associated, actin dependent regulator of chromatin, subfamily a, member 2 (SMARCA2, BRM).; assay type: functional
SWI/SNF-related matrix-associated actin-dependent regulator of chromatin subfamily A member 2, sequence (P51531 whole entry): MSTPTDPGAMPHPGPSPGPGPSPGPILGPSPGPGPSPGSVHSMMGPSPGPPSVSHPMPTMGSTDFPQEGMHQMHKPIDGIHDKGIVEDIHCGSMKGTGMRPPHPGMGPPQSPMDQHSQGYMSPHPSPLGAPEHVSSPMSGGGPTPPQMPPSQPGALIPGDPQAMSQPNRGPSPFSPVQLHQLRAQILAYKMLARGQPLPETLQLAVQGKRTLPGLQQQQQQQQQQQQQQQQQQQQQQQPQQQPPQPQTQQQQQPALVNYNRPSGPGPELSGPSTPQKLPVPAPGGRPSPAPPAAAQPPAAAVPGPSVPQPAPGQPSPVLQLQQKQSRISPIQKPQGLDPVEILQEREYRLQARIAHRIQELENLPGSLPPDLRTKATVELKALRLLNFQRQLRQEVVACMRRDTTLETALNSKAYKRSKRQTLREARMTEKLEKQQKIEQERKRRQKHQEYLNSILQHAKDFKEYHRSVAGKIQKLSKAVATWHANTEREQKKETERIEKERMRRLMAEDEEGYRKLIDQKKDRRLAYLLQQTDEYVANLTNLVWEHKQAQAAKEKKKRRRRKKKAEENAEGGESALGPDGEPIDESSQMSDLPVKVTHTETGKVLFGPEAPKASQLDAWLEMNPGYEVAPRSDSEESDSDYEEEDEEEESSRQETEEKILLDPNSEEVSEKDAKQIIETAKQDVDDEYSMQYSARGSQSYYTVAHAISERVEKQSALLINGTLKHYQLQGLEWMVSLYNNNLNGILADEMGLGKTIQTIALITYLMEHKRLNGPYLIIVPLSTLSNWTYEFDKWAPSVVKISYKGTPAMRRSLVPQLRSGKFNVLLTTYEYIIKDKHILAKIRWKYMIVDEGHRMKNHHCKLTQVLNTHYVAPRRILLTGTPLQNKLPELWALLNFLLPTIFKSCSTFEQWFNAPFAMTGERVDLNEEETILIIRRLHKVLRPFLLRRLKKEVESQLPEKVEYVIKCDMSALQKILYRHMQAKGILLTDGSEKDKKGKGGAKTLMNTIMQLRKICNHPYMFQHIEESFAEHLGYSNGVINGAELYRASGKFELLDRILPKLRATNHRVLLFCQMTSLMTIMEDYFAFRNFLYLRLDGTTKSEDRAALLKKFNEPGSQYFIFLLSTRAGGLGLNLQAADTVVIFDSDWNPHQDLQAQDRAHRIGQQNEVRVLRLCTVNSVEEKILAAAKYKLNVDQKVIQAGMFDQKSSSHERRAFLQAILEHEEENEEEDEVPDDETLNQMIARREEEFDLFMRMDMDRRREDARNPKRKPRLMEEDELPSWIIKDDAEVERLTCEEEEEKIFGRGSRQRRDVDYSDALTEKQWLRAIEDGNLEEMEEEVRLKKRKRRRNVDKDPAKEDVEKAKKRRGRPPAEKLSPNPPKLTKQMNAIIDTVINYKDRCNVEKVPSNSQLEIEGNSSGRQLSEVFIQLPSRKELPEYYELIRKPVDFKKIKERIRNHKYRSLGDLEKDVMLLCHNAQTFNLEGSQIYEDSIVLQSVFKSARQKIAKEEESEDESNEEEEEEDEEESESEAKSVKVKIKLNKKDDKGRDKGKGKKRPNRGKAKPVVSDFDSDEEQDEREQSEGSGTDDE

[3] = Counterscreen for activators of the function of SWI/SNF related, matrix associated, actin dependent regulator of chromatin, subfamily a, member 2 (SMARCA2, BRM): Luminescence-based cell-based high throughput dose response assay to identify non-selective compounds using the VP16 reporter assay.; assay type: functional
Caspase-6 = Caspase-6 (Homo sapiens, UniProt P55212); test: human caspase-6 inhibitors, dose response, biochemical, VEID-R110 fluorescence, cherry-pick (AID 720632)
Caspase-6, sequence (P55212 24-179 limits assumed): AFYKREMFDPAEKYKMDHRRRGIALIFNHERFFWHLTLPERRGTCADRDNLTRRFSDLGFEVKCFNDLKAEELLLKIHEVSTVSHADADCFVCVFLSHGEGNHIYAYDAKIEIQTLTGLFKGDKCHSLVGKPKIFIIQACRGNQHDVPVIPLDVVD
Caspase-6, sequence (P55212 194-293 limits assumed): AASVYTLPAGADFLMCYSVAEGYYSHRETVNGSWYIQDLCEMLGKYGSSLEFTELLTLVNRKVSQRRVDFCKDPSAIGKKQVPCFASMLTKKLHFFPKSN

[4] = ADAM10 protease inhibitors, dose response, selectivity assay for ADAM17 exosite inhibitor project, biochemical, FRET peptide substrate, recombinant human ADAM10 (AID 743259);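 note: ADAM10 enzyme cleaving a FRET peptide substrate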
[5] = target: Disintegrin and metalloproteinase domain-containing protein 17 (Homo sapiens, UniProt P78536); test: exosite inhibitors of ADAM17, dose response, biochemical (AID 743260)
[6] = cytotoxicity in A549 cells, dose response, cytotoxicity control, cell-based, CellTiter-Glo luminescence, cherry-pick (AID 743484); assay type: functional
[7] = HEK293T cell cytotoxicity, dose response, cytotoxicity control, CellTiter-Glo luminescence, cherry-picked samples, set 4 (AID 743441); assay type: functional, cell-based; details: HEK293
[8] = target: 1-phosphatidylinositol 4,5-bisphosphate phosphodiesterase gamma-1 (Homo sapiens, UniProt P19174); test: Counterscreen for inhibitors of phospholipase C isozymes (PLC-B3): Fluorescence-based biochemical high throughput dose response assay to identify inhibitors of phospholipase C isozymes (PLC-gamma1).
1-phosphatidylinositol 4,5-bisphosphate phosphodiesterase gamma-1, sequence (P19174 whole entry): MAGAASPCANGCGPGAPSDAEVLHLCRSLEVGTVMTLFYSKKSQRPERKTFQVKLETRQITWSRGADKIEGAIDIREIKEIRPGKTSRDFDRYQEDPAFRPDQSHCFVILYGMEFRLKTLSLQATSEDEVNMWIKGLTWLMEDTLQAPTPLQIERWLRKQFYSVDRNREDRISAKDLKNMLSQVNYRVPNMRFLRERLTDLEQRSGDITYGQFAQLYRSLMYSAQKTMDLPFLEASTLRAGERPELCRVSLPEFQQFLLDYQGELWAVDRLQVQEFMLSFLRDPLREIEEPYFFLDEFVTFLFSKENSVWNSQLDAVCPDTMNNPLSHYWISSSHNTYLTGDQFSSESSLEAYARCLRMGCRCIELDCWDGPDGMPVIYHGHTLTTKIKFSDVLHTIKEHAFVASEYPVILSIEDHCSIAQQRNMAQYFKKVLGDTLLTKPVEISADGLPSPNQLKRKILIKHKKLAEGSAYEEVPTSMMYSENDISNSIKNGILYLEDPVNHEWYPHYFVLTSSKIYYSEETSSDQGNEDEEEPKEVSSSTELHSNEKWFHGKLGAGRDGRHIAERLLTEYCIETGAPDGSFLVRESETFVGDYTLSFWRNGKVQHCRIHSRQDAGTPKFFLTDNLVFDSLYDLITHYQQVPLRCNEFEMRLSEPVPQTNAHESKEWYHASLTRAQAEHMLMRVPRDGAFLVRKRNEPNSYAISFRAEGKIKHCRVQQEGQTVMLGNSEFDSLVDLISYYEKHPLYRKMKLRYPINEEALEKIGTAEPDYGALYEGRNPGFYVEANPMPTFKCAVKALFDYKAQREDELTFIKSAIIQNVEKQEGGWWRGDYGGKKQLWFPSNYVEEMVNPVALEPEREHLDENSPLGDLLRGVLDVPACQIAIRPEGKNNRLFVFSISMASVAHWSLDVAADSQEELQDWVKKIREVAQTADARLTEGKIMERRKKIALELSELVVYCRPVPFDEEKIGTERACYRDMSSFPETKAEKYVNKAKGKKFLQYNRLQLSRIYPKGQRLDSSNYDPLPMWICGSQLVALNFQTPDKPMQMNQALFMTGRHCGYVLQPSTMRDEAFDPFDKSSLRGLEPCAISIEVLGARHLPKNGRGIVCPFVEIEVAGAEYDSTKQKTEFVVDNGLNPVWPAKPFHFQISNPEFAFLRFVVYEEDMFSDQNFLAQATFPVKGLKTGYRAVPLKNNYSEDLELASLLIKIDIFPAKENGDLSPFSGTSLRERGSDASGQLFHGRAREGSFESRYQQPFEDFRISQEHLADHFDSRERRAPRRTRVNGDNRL

[9] = target: 1-phosphatidylinositol 4,5-bisphosphate phosphodiesterase beta-3 (Homo sapiens, UniProt Q01970); test: Fluorescence-based biochemical high throughput dose response assay to identify inhibitors of phospholipase C isozymes (PLC-B3).
[10] = PAX5 activity inhibitors, dose response, selectivity assay for PAX8 inhibitor project, cell-based, plate reader, dry powder samples (AID 743047); assay type: functional;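 note: HEK293 cells carrying a Pax5 driven CD19 promoter luciferase reporter; potency of inhibitors that lower reporter luminescence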
[11] = cytotoxicity dependent on PAX8, dose response, cell-based, plate reader, dry powder (AID 743049); assay type: functional
[12] = NIH:OVCAR-3 ovarian cancer cell cytotoxicity, dose response, PAX8 inhibitor project, plate reader, dry powder samples (AID 743044); assay type: functional, cell-based
[13] = cytotoxicity in OV-90 ovarian cancer cells, dose response, PAX8 inhibitor project, cell-based, plate reader, dry powder, SA8 (AID 743149); assay type: functional
[14] = PAX2 cell-based inhibition, dose response, selectivity assay for PAX8 inhibitor project, plate reader, dry powder samples (AID 743048); assay type: functional;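 note: HEK293 cells carrying a WT1 promoter luciferase reporter driven by expressed Pax2; potency is for inhibition of Pax2 driven reporter signal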
Paired box protein Pax-8 = Paired box protein Pax-8 (Homo sapiens, UniProt Q06710); test: inhibitors of PAX8-driven TPO luciferase reporter, dose response, RMG-I cells, cherry-pick (AID 687027); assay type: functional, cell-based;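 note: luciferase reporter driven by Pax8 target thyroperoxidase promoter measured by SteadyGlo luminescence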
Paired box protein Pax-8, sequence (Q06710 whole entry): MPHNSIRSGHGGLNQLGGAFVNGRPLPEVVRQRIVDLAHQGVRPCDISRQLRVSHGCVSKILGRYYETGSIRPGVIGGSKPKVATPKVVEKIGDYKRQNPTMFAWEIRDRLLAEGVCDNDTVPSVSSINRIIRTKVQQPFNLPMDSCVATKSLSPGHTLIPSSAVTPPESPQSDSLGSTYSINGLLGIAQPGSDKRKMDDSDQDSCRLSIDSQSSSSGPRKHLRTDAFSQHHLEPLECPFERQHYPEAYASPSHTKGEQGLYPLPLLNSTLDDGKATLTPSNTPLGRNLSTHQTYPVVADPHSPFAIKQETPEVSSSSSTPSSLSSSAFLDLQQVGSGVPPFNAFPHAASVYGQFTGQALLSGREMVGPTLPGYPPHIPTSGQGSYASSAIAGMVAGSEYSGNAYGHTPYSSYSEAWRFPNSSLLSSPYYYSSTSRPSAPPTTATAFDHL

fMet-Leu-Phe receptor = fMet-Leu-Phe receptor (Homo sapiens, UniProt P21462); test: FPR ligands, dose response (AID 519); assay type: functional
fMet-Leu-Phe receptor, sequence (P21462 whole entry): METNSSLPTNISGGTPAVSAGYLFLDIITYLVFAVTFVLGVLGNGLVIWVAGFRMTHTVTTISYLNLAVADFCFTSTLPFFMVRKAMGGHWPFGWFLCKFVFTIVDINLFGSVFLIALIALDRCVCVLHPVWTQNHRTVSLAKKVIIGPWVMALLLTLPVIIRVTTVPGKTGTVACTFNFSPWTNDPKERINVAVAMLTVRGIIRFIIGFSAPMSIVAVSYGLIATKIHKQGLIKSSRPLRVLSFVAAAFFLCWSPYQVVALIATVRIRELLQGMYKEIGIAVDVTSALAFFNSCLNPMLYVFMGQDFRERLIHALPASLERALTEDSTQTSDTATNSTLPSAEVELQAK

[15] = target: Potassium channel subfamily K member 3 (Homo sapiens, UniProt O14649); test: TASK1 (KCNK3) potassium channel inhibitors, SAR follow-up, CHO cells, FluxOR thallium flux (AID 652212); assay type: functional
[16] = target: T1, Methionyl-tRNA synthetase, putative (Trypanosoma brucei brucei, UniProt Q38C91); assay type: functional, Trypanosoma brucei brucei strain 927/4 GUTat10.1
T1 sequence (Q38C91 whole entry): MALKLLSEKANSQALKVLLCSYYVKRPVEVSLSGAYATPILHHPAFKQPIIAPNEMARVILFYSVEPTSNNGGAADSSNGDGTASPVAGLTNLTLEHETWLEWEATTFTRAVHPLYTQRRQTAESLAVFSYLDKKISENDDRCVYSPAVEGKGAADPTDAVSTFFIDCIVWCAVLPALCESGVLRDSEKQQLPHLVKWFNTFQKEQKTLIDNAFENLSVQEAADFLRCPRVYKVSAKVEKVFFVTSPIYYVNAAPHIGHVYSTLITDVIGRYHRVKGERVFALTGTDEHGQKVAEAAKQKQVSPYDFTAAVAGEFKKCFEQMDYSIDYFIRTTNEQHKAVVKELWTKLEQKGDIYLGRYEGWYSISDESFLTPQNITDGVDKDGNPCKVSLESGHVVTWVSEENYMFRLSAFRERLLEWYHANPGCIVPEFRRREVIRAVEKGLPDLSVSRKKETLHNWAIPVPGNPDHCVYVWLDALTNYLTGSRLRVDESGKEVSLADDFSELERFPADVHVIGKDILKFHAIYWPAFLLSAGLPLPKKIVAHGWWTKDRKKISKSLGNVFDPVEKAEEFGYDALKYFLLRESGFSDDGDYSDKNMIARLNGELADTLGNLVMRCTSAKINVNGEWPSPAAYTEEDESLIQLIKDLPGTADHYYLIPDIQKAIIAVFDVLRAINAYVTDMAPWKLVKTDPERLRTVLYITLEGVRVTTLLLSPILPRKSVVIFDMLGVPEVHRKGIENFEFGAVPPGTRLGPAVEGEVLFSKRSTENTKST

[17] = Counterscreen for inhibitors of Trypanosoma brucei methionyl tRNA synthetase (MetRS): Luminescence-based cell-based high throughput dose response assay to identify compounds that are cytotoxic to Jurkat human T lymphocyte cells.; assay type: functional
[18] = Late stage counterscreen for inhibitors of Trypanosoma brucei methionyl tRNA synthetase (MetRS): Luminescence-based cell-based high throughput dose response assay to identify compounds that are cytotoxic to Jurkat human T lymphocyte cells.; assay type: functional
[19] = target: T1, Methionyl-tRNA synthetase, putative; assay type: functional, Trypanosoma brucei brucei strain 927/4 GUTat10.1; remark: listed apart in the source
Kallikrein-7 = Kallikrein-7 (Homo sapiens, UniProt P49862); test: Fluorescence Intensity-based biochemical primary high throughput dose response assay to identify activators of kallikrein-7 (K7) zymogen.
Kallikrein-7, sequence (P49862 whole entry, the tested form may be a part): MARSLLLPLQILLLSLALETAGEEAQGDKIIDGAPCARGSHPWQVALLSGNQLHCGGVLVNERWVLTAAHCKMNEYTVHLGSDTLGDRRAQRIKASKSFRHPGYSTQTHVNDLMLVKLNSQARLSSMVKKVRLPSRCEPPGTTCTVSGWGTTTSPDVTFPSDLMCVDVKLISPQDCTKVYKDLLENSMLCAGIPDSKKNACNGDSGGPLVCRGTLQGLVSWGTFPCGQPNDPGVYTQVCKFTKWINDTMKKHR

[20] = target: T2, Oxysterols receptor LXR-beta (Homo sapiens, UniProt P55055); assay type: functional, cell-based;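 note: agonist activity at LXR measured by a cell-based luminescence readout across a dose range, run as a counterscreen for daf-12 agonists; HEK293 cells with Gal4-LXR fusion and GAL4-driven luciferase reporter; potency for activation of Gal4-LXR reporter so compounds are agonists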
T2 sequence (P55055 whole entry): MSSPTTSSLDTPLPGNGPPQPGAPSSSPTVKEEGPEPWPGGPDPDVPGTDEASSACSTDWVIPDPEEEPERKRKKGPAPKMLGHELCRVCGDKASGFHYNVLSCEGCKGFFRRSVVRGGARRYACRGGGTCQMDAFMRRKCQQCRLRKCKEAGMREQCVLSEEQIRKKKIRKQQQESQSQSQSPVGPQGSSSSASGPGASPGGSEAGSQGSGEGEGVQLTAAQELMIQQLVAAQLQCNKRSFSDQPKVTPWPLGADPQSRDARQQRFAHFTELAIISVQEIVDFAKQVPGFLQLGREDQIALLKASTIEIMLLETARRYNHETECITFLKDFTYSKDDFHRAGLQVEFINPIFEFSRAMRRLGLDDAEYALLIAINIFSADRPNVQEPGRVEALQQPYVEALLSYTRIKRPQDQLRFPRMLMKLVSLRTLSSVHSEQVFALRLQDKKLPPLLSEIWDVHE

HEK293 = test: HEK293T cell cytotoxicity, dose response, cytotoxicity control, ATP luminescence, cherry-pick samples (AID 687005); assay type: functional, cell-based; details: Homo sapiens;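 note: cells exposed to compound for 48 hours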
HeLa = test: HeLa cell cytotoxicity, dose response, cytotoxicity control, ATP luminescence, cherry-pick samples (AID 687004); assay type: functional, cell-based; details: Homo sapiens
[21] = HEK293 Cytotoxicity Assay Measured in Cell-Based System Using Plate Reader - 7071-01_Inhibitor_Dose_CherryPick_Activity_Set2.; assay type: functional
[22] = A549 cell cytotoxicity, dose response, cytotoxicity control, 24 h, CellTiter-Glo luminescence, cherry-picks (AID 1053115); assay type: functional, cell-based; details: A549, 24 h
[23] = inhibitors of non-replicating M. tuberculosis, dose response, luciferase, dry powder (AID 651620); assay type: functional; details: Mycobacterium tuberculosis
[24] = growth inhibition of replicating M. tuberculosis, dose response, counter-screen, dry powder, IC90 (AID 651617); assay type: functional; details: Mycobacterium tuberculosis
[25] = inhibitors of non-replicating M. tuberculosis, dose response, luciferase, dry powder (AID 651619); assay type: functional; details: Mycobacterium tuberculosis
[26] = A375 melanoma cell viability loss, dose response, counter-screen for MITF modulator project, CellTiter-Glo luminescence, dry powder, set 9 (AID 651591); assay type: functional, cell-based; details: A-375
[27] = MALME3 melanoma cell viability reduction, dose response, orthogonal assay for MITF inhibitor project, CellTiter-Glo luminescence, dry powder, set 5 (AID 651584); assay type: functional, cell-based; details: MALME-3
[28] = TRPM1 promoter luciferase reporter signal decrease, dose response, MITF inhibitor project, cell-based, SK-MEL-5, dry powder, set 9 (AID 651588); assay type: functional
[29] = SK-MEL-5 parental cell viability reduction, dose response, orthogonal assay for MITF inhibitor project, CellTiter-Glo luminescence, dry powder, set 8 (AID 651586); assay type: functional, cell-based
[30] = TRPM1 promoter luciferase reporter signal decrease, dose response, MITF inhibitor project, cell-based, SK-MEL-5, dry powder, set 8 (AID 624430); assay type: functional
[31] = MITF: Counter assay: A375 proliferation Measured in Cell-Based System Using Plate Reader - 2084-03_Inhibitor_Dose_DryPowder_Activity_Set8.; assay type: functional; details: A-375
[32] = MITF Orthogonal Assay: SK-MEL-5 CTG Assay Measured in Cell-Based System Using Plate Reader - 2084-02_Inhibitor_Dose_DryPowder_Activity_Set7.; assay type: functional
[33] = MITF Orthogonal Assay: MALME3 CTG Assay Measured in Cell-Based System Using Plate Reader - 2084-04_Inhibitor_Dose_DryPowder_Activity_Set6.; assay type: functional; details: MALME-3
[34] = Late stage assay provider results from the probe development effort to identify selective inhibitors of heat shock protein 90 (HSP90): Absorbance-based cell proliferation assay in MCF7 cells.; assay type: functional
[35] = Late stage assay provider results from the probe development effort to identify selective inhibitors of heat shock protein 90 (HSP90): Absorbance-based cell proliferation assay in SKBR3 cells.; assay type: functional; details: SK-BR-3

## COc1cccc2nc3c(C(=O)NCCN(C)C)cccc3cc12
[1]
  IC50: > 43.8 µM (inactive)
[2]
  EC50: > 10.1 µM (inactive)
[3]
  EC50: > 91.2 µM (inactive)

## Cc1cc(C2(O)C(=O)Nc3ccccc32)ccc1F (stereo unspecified)
Caspase-6
  AC50: 13 µM (active)

## CC(C)C(NS(=O)(=O)c1c(Cl)cccc1Cl)C(=O)OCC(=O)c1c[nH]c2ccccc12 (stereo unspecified)
[4]
  IC50: > 7.72 µM (active)
[5]
  IC50: > 69.5 µM (inactive)

## C=CCNC(=O)c1ccccc1NC(=O)c1ccc(Cl)c(S(=O)(=O)Nc2cccc(C)c2C)c1
[6]
  AC50: 30.1 µM (active)
[7]
  AC50: 36.7 µM (active)

## Cc1ccc(NC(=O)c2nn(C34CC5CC(CC(C5)C3)C4)cc2[N+](=O)[O-])cc1
[8]
  IC50: > 122 µM (inactive)
[9]
  IC50: > 122 µM (inactive)

## CC(=O)N1CCOc2ccc(S(=O)(=O)N3CCN(c4cccc(C(F)(F)F)c4)CC3)cc21
[10]
  AC50: 45.3 µM (active)
[11]
  AC50: 94.5 µM (active)
[12]
  AC50: 17.9 µM (active)
[13]
  AC50: 63 µM (active)
[14]
  AC50: 30.9 µM (active)
Paired box protein Pax-8
  AC50: 2.36 µM (active)

## COc1ccc(OC)c(C2C(C(=O)c3ccccc3)=C(O)C(=O)N2Cc2ccco2)c1 (stereo unspecified)
fMet-Leu-Phe receptor
  Ki: 3.4 µM (active)

## O=C(Nc1cccc(NC(=O)c2cccc(F)c2)c1)c1ccccc1
[15]
  IC50: 0.046 µM (active)

## CN(CC(=O)Nc1ccc(Cl)cc1)C(=O)c1ccc(-n2cncn2)c([N+](=O)[O-])c1
[16]
  IC50: 1.18 µM (active)
[17]
  IC50: 83.3 µM (inactive)
[18]
  IC50: > 83.3 µM (inactive)
[19]
  IC50: 2 µM (active)

## CSc1ccc(/C=C/C(=O)OCC(=O)NC2CCS(=O)(=O)C2)cc1 (stereo unspecified)
Kallikrein-7
  EC50: > 69.5 µM (inactive)

## CC(C)C(N)c1csc(Nc2nncc3ccccc23)n1 (stereo unspecified)
[20]
  EC50: > 67.1 µM (inactive)

## Cc1ccccc1CN(C)C[C@H]1OCc2cn(nn2)CCCC(=O)N([C@@H](C)CO)C[C@H]1C
HEK293
  AC50: 46.7 µM (active)
HeLa
  AC50: 14.7 µM (active)
[21]
  AC50: 46.7 µM (active)

## N#Cc1ccc(-c2ccc3c(c2)[C@H]2[C@H](CCN2C(=O)C2CCCCC2)[C@H](CO)N3)cc1
[22]
  AC50: 42 µM (active)

## c1ccc(-n2cc(CSc3nnc(C4CCCC4)o3)nn2)cc1
[23]
  IC90: 1 µM (active)
[24]
  IC90: 125 µM (active)
[25]
  IC90: 1 µM (active)

## CC(C)N1CCN(C2=C(Nc3ccc(F)cc3)C(=O)c3ccccc3C2=O)CC1
[26]
  AC50: > 70 µM (inactive)
[27]
  AC50: 38.6 µM (active)
[28]
  AC50: 9.77 µM (active)
[29]
  AC50: > 70 µM (inactive)
[30]
  AC50: 3.6 µM (active)
[31]
  AC50: > 70 µM (inactive)
[32]
  AC50: 10.5 µM (active)
[33]
  AC50: 38.6 µM (active)

## COc1ccc(NC(=O)c2ccc(NC(=O)c3coc(=O)c(Br)c3)cc2)cc1
[34]
  IC50: 12.1 µM (inactive)
[35]
  IC50: 27.2 µM (inactive)
